Test results published in patent US7132437B2, “Renal-selective biphenylalkyl 1H-substituted-1,2,4-triazole angiotensin II antagonists for treatment of hypertension” (G.D. Searle, priority 1990, dated 2006).
Blank lines part the entries; values can stand above or below the compound they belong to.

What was measured:
rabbit aortic rings = assay: Assay B: In Vitro Vascular Smooth Muscle Response for AII; assay type: cell-based; conditions: antagonist at 10^-5 M, two values per cell = aorta rings from two rabbits; for Kb: Oryctolagus cuniculus, read-out: Assay B pA2 (converted)
Protocol: Assay B: In Vitro Vascular Smooth Muscle-Response for ATT
Compounds of Formula I were tested for antagonist activity in rabbit aortic rings. Male New Zealand white rabbits (2–2.5 kg) were sacrificed using an overdose of pentobarbital and exsanguinated via the carotid arteries. The thoracic aorta was removed, cleaned of adherent fat and connective tissue and then cut into 3-mm ring segments. The endothelium was removed from the rings by gently sliding a rolled-up piece of filter paper into the vessel lumen. The rings were then mounted in a water-jacketed tissue bath, maintained at 37° C., between moveable and fixed ends of a stainless steel wire with the moveable end attached to an FT03 Grass transducer coupled to a Model 7D Grass Polygraph for recording isometric force responses. The bath was filled with 20 ml of oxygenated (95% oxygen/5% carbon dioxide) Krebs solution of the following composition […]: 130 NaCl, 15 NaHCO3, 15 KCl, 1.2 NaH2PO4, 1.2 MgSO4, 2.5 CaCl2, and 11.4 glucose. The preparations were equilibrated for one hour before approximately one gram of passive tension was placed on the rings. Angiotensin II concentration-response curves were then recorded (3×10^−10 to 1×10–5 M). Each concentration of AII was allowed to elicit its maximal contraction, and then AII was washed out repeatedly for 30 minutes before rechallenging with a higher concentration of AII. Aorta rings were exposed to the test antagonist at 10^−5 M for 5 minutes before challenging with AII. Adjacent segments of the same aorta ring were used for all concentration-response curves in the presence or absence of the test antagonist. The effectiveness of the test compound was expressed in terms of pA2 values and were calculated according to H. O. Schild [Br. J. Pharmacol. Chemother., 2, 189–206 (1947)]. […] Each test antagonist was evaluated in aorta rings from two rabbits.

AII pressor response = assay: Assay C: In Vivo Intraduodenal Pressor Assay Response for AII Antagonists; parameters: species or system Sprague-Dawley rats
Protocol: Assay C: In Vivo Intraduodenal Pressor Assay Response for AII Antagonists
Male Sprague-Dawley rats weighing 225–300-grams were anesthetized with Inactin (100 mg/kg, i.p.) and catheters were implanted into the trachea, femoral artery, femoral vein and duodenum. Arterial pressure was recorded from the femoral artery catheter on a Gould chart recorder (Gould, Cleveland, Ohio). The femoral vein catheter was used for injections of angiotensin II, mecamylamine and atropine. The tracheal catheter allow for airway patency, and the duodenal catheter was used for intraduodenal (i.d.) administration of test compounds. After surgery, the rats were allowed to equilibrate for 30 minutes. Mecamylamine (3 mg/kg, 0.3 ml/kg) and atropine (400 ug/kg, 0.3 ml/kg) were then given i.v. to produce ganglion blockade. These compounds were administered every 90 minutes throughout the test procedure. Angiotensin II was given in bolus does i.v. (30 ng/kg in saline with 0.5% bovine serum albumin, 0.1 ml/kg) every 10 minutes three times or until the increase in arterial pressure produced was within 3 mmHg for two consecutive AII injections. The last two AII injections were averaged and were taken as the control AII pressor response. […] Angiotensin II injections were then given 5, 10, 20, 30, 45, 60, 75, 90, and 120 minutes after administration of the test compound and response of arterial pressure was monitored. The response to AII was calculated as percent of the control response and then the percent inhibition is calculated as 100 minus the percent control response. Duration of action of a test compound was defined as the time from peak percent inhibition to 50% of peak. One compound at one dose was tested in each rat. Each test compound was tested in two rats and the values for the two rats were averaged.

[1] = biological target: T1, smooth muscle angiotensin II receptor; assay: Assay A: Angiotensin II Binding Activity; conditions: rat uterine membrane preparation, displacement of 125I-AII
T1 construct: Rat uterine membranes were prepared from fresh tissue
Protocol: Assay A: Angiotensin II Binding Activity
Compounds of Formula I were tested for ability to bind to the smooth muscle angiotensin II receptor using a rat uterine membrane preparation. […] Other chemicals were obtained from Sigma Chemical Co. This assay was carried out according to the method of Douglas et al [Endocrinology, 106, 120–124 (1980)]. Rat uterine membranes were prepared from fresh tissue. All procedures were carried out at 4° C. Uteri were stripped of fat and homogenized in phosphate-buffered saline at pH 7.4 containing 5 mM EDTA. The homogenate was centrifuged at 1500×g for 20 min., and the supernatant was recentrifuged at 100,000×g for 60 min. The pellet was resuspended in buffer consisting of 2 mM EDTA and 50 mM Tris-HCl (pH 7.5) to a final protein concentration of 4 mg/ml. […] The reaction was initiated by the addition of membrane protein and the mixture was incubated at 25° C. for 60 min. The incubation was terminated with ice-cold 50 mM Tris-HCl (pH 7.5) and the mixture was filtered to separate membrane-bound labelled peptide from the free ligand. The incubation tube and filter were washed with ice-cold buffer. Filters were assayed for radioactivity in a Micromedic gamma counter. Nonspecific binding was defined as binding in the presence of 10 μM of unlabelled AII. Specific binding was calculated as total binding minus nonspecific binding. […] Binding data were analyzed by a nonlinear least-squares curve fitting program.

[2] = Rattus norvegicus, intraduodenal, 30 mg/kg intraduodenally
[3] = Rattus norvegicus, intraduodenal, 100 mg/kg intraduodenally

Structure (SMILES): CCCCc1nc(Cl)nn1Cc1ccc(-c2ccccc2C(=O)O)cc1 (single isomer, unassigned) [Example 6, 4′-[(5-butyl-3-chloro-1H-1,2,4-triazol-1-yl)methyl][1,1′-biphenyl]-2-carboxylic acid]
Assay B pA2 (rabbit aortic rings): 6.82
Assay C Duration (AII pressor response; 100 mg/kg intraduodenally): 120 min

Structure (SMILES): CCCCc1nc(CCc2ccccc2)nn1Cc1ccc(-c2ccccc2-c2nnn[nH]2)cc1 (single isomer, unassigned) [Example 26]
Assay B pA2 (rabbit aortic rings): 9.66
melting point: 156 to 157.2 °C
IC50 [1]: 0.0032 µM

Structure (SMILES): CCCCc1nc(CCC(=O)O)nn1Cc1ccc(-c2ccccc2-c2nnn[nH]2)cc1 [Example 9, 5-[4′-[[5-butyl-3-(2-carboxyethyl)-1H-1,2,4-triazol-1-yl]methyl][1,1′-biphenyl]-2-yl]-1H-tetrazole]
Assay C Duration (AII pressor response; 30 mg/kg intraduodenally): 75 min
Assay C Duration (AII pressor response; 100 mg/kg intraduodenally): 130 min
inhibition at 30 mg/kg (AII pressor response; [2]): 80%
inhibition at 100 mg/kg (AII pressor response; [3]): 100%
IC50 [1]: 0.7 µM

Structure (SMILES): CCCCc1nc(C2CCCCC2)nn1Cc1ccc(-c2ccccc2-c2nnn[nH]2)cc1 [Example 66, 5-[4′-[(5-butyl-3-cyclohexyl-1H-1,2,4-triazol-1-yl)methyl][1,1′-biphenyl]-2-yl]-1H-tetrazole]
melting point: 125 to 127 °C

Structure (SMILES): O=C(O)c1ccccc1-c1ccc(Cn2nc(C(F)(F)C(F)(F)C(F)(F)F)nc2C(F)(F)C(F)(F)C(F)(F)F)cc1 [Example 20, 4′-[(3,5-di-perfluoropropyl-1H-1,2,4-triazol-1-yl)methyl][1,1′-biphenyl]-2-carboxylic acid]
Kb (rabbit aortic rings): 1.29 µM
Assay C Duration (AII pressor response; 100 mg/kg intraduodenally): 45 min
inhibition at 100 mg/kg (AII pressor response; [3]): 10%

Structure (SMILES): CCCCc1nc(C2CCCCC2)n(Cc2ccc(-c3ccccc3-c3nnn[nH]3)cc2)n1 [Example 65, 5-[4′-[(3-butyl-5-cyclohexyl-1H-1,2,4-triazol-1-yl)methyl][1,1′-biphenyl]-2-yl]-1H-tetrazole]
melting point: 157.5 to 159.5 °C

Structure (SMILES): CCCCc1nc(C(F)(F)CCC)nn1Cc1ccc(-c2ccccc2C(=O)O)cc1 [Example 10]
Assay C Duration (AII pressor response; 3 mg/kg intraduodenally, time from peak percent inhibition to 50% of peak): 100 min
Assay C Duration (AII pressor response; 30 mg/kg intraduodenally): 240 min
inhibition at 3 mg/kg (AII pressor response; Rattus norvegicus, intraduodenal): 86%
inhibition at 30 mg/kg (AII pressor response; [2]): 100%

Structure (SMILES): CCCCc1nc(C(OC)OC)n(Cc2ccc(-c3ccccc3-c3nnn[nH]3)cc2)n1 (single isomer, unassigned) [Example 23, 5-[4′-[[3-butyl-5-(dimethoxymethyl)-1H-1,2,4-triazol-1-yl]methyl][1,1′-biphenyl]-2-yl]-1H-tetrazole]
melting point: 152.5 to 153.5 °C
IC50 [1]: 0.43 µM

Structure (SMILES): CCCCc1nc(CCCN)nn1Cc1ccc(-c2ccccc2-c2nnn[nH]2)cc1 [Example 5, 5-[4′-[[3-(3-aminopropyl)-5-butyl-1H-1,2,4-triazol-1-yl]methyl][1,1′-biphenyl]-2-yl]-1H-tetrazole]
Assay C Duration (AII pressor response; 30 mg/kg intraduodenally): 20 to 30 min
inhibition at 30 mg/kg (AII pressor response; [2]): 38%
IC50 [1]: 0.2 µM

Further lines, with some results ahead:

IC50 [1]: 0.084 µM
Structure (SMILES): CCCCc1nc(CC(=O)O)nn1Cc1ccc(-c2ccccc2-c2nnn[nH]2)cc1 [Example 7, 5-[4′-[(5-butyl-3-carboxymethyl-1H-1,2,4-triazol-1-yl)methyl][1,1′-biphenyl]-2-yl]-1H-tetrazole]
Kb (rabbit aortic rings): 0.00977 µM
Assay C Duration (AII pressor response; 30 mg/kg intraduodenally): 130 min
inhibition at 30 mg/kg (AII pressor response; [2]): 90%

IC50 [1]: 0.0054 µM
Structure (SMILES): CCCCc1nc(CN)nn1Cc1ccc(-c2ccccc2-c2nnn[nH]2)cc1 [Example 3, 5-[4′-[(3-aminomethyl-5-butyl-1H-1,2,4-triazol-1-yl)methyl][1,1′-biphenyl]-2-yl]-1H-tetrazole]
Kb (rabbit aortic rings): 0.002 µM
Assay C Duration (AII pressor response; 10 mg/kg intragastrically): >180 min
Assay C Duration (AII pressor response; 30 mg/kg intragastrically): 200^+ min.
inhibition at 10 mg/kg (AII pressor response; Rattus norvegicus, po, 10 mg/kg intragastrically): 50%
inhibition at 30 mg/kg (AII pressor response; Rattus norvegicus, po, 30 mg/kg intragastrically): 100%

melting point: 136.5 to 138 °C
IC50 [1]: 0.57 µM
Structure (SMILES): CCCCCCCCc1nc(CCCC)nn1Cc1ccc(-c2ccccc2-c2nnn[nH]2)cc1 (single isomer, unassigned) [Example 28, 5-[4′-[(3-butyl-5-octyl-1H-1,2,4-triazol-1-yl)methyl][1,1′-biphenyl]-2-yl]-1H-tetrazole]

melting point: 150.5 to 152.5 °C
Structure (SMILES): CCCCc1nc(C(=O)CCC)nn1Cc1ccc(-c2ccccc2-c2nnn[nH]2)cc1 [Example 30]

IC50 [1]: 0.016 µM
Structure (SMILES): CCCCc1nc(CCC)n(Cc2ccc(-c3ccccc3C(=O)O)cc2)n1 [Example 15, 4′-[(3-butyl-5-propyl-1H-1,2,4-triazol-1-yl)methyl]-[1,1′-biphenyl]-2-carboxylic acid]
Kb (rabbit aortic rings): 0.0049 µM

melting point: 170 to 170.5 °C
IC50 [1]: 0.016 µM
Structure (SMILES): CCCCc1nc(C)nn1Cc1ccc(-c2ccccc2-c2nnn[nH]2)cc1 (single isomer, unassigned) [Example 32, 5-[4′-[(5-butyl-3-methyl-1H-1,2,4-triazol-1-yl)methyl][1,1′-biphenyl]-2-yl]-1H-tetrazole]

melting point: 205 °C (dec.)
IC50 [1]: 0.46 µM
Structure (SMILES): CCCCc1nc(-c2ccccc2)n(Cc2ccc(-c3ccccc3-c3nnn[nH]3)cc2)n1 (single isomer, unassigned) [Example 22, 5-[4′-[(3-butyl-5-phenyl-1H-1,2,4-triazol-1-yl)methyl](1,1′-biphenyl)-2-yl]-1H-tetrazole]
Assay B pA2 (rabbit aortic rings): 6.46

melting point: 113 °C (dec.)
IC50 [1]: 0.087 µM
Structure (SMILES): CCCCc1nc(-c2ccccc2)nn1Cc1ccc(-c2ccccc2-c2nnn[nH]2)cc1 (single isomer, unassigned) [Example 21, 5-[4′-[(3-phenyl-5-butyl-1H-1,2,4-triazol-1-yl)methyl](1,1′-biphenyl)-2-yl]-1H-tetrazole]

IC50 [1]: 0.48 µM
Structure (SMILES): CCCCc1nc(CCc2ccccc2)n(Cc2ccc(-c3ccccc3-c3nnn[nH]3)cc2)n1 (single isomer, unassigned) [Example 25]
Assay B pA2 (rabbit aortic rings): 6.73
